Experimental findings from US11098058B2, “Bicyclic ketone compounds and methods of use thereof” (Genentech, Inc., priority 2017, dated 2021) are described below.

SMILES strings stand for the structures. pKi: −log10 of the molar value.

Chain of human RIP1 kinase domain (2-375) (Q13546 2-375): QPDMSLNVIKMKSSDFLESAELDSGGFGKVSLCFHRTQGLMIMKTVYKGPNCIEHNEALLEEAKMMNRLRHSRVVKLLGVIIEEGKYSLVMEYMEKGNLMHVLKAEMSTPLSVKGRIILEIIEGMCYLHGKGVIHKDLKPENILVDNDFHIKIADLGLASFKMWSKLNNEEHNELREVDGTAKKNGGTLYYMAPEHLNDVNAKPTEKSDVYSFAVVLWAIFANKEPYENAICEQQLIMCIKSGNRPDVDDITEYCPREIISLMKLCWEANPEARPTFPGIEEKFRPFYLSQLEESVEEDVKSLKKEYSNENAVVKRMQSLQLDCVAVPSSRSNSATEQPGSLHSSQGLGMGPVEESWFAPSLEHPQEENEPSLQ

The first assay addresses human RIP1 kinase domain (2-375) (Homo sapiens (Human), UniProt Q13546). Put plainly: biochemical. The note with it: RIP1 kinase inhibition, tight-binding apparent Ki, 50 nM enzyme, 50 μM ATP, 2 hours incubation.
Regarding `C[C@H]1C[C@@H]1C(=O)c1nc2n(n1)[C@H](c1ccccc1)C[C@@H]2F` (mixture of isomers) [Example 75, [(5S,7S)-7-fluoro-5-phenyl-6,7-dihydro-5H-pyrrolo[1,2-b][1,2,4]triazol-2-yl]-[rac-(1S,2S)-2-methylcyclopropyl]methanone], the pKi (commonly the Ki on a negative log10 scale, so that one unit is a factor of ten) was 8.43.
On the same count and under the same terms, in the case of `N#C[C@@H]1C[C@H]1C(=O)c1nc2n(n1)[C@H](c1ccccc1)C[C@@H]2F` (mixture of isomers) [Example 105, rac-(1R,2R)-2-[(5S,7S)-7-fluoro-5-phenyl-6,7-dihydro-5H-pyrrolo[1,2-b][1,2,4]triazole-2-carbonyl]cyclopropanecarbonitrile] it was 7.89; in that of `O=C(c1nc2n(n1)[C@H](c1ccccc1F)CC2)C1CC1` (racemic) [Example 63, cyclopropyl-[rac-(5S)-5-(2-fluorophenyl)-6,7-dihydro-5H-pyrrolo[1,2-b][1,2,4]triazol-2-yl]methanone], 8.00.

Still in this assay, the particulars now being: tight-binding apparent inhibition constant (Ki app, Morrison equation), 50 nM enzyme, 50 μM ATP, 2 hours incubation.
As to `O=C(Cc1ccccc1)c1nc2n(n1)[C@H](c1ccccc1)C[C@@H]2F` (racemic) [Example 7, 2-phenyl-1-[rac-(5S,7S)-7-fluoro-5-phenyl-6,7-dihydro-5H-pyrrolo[1,2-b][1,2,4]triazol-2-yl]ethanone], the pKi was 7.91.
With `O=C(c1ccccc1)c1nc2n(n1)[C@H](c1ccccc1)C[C@@H]2F` (racemic) [Example 12, phenyl-[rac-(5S,7S)-7-fluoro-5-phenyl-6,7-dihydro-5H-pyrrolo[1,2-b][1,2,4]triazol-2-yl]methanone], the pKi was 7.67.
For the compound `CCC(=O)c1nc2n(n1)[C@@H](c1ccccc1)C[C@@H]2F` (racemic) [Example 13, 1-[rac-(5R,7S)-7-fluoro-5-phenyl-6,7-dihydro-5H-pyrrolo[1,2-b][1,2,4]triazol-2-yl]propan-1-one], the pKi is 6.71.
Turning to `O=C(c1nc2n(n1)[C@H](c1ccccc1)C[C@@H]2F)C1(C(F)(F)F)CC1` (racemic) [Example 14, (rac-(5S,7S)-7-fluoro-5-phenyl-6,7-dihydro-5H-pyrrolo[1,2-b][1,2,4]triazol-2-yl)-[1-(trifluoromethyl)cyclopropyl]methanone], the pKi is 7.95.
For `CC1(C(=O)c2nc3n(n2)[C@H](c2ccccc2)C[C@@H]3F)COC1` (racemic) [Example 15, (rac-(5S,7S)-7-fluoro-5-phenyl-6,7-dihydro-5H-pyrrolo[1,2-b][1,2,4]triazol-2-yl)-(3-methyloxetan-3-yl)methanone], the pKi was 7.52.
On the same count and under the same terms, in the case of `O=C(c1nc2n(n1)[C@@H](c1ccccc1)C[C@@H]2F)C1CC1` (racemic) [Example 18, cyclopropyl-[rac-(5R,7S)-7-fluoro-5-phenyl-6,7-dihydro-5H-pyrrolo[1,2-b][1,2,4]triazol-2-yl]methanone] it was 6.63; in that of `CC(C)(C#N)C(=O)c1nc2n(n1)[C@H](c1ccccc1)C[C@@H]2F` (racemic) [Example 22, 3-(rac-(5S,7S)-7-fluoro-5-phenyl-6,7-dihydro-5H-pyrrolo[1,2-b][1,2,4]triazol-2-yl)-2,2-dimethyl-3-oxo-propanenitrile], 7.48; in that of `CC1(C(=O)c2nc3n(n2)[C@H](c2ccccc2)C[C@@H]3F)CC1` (racemic) [Example 26, (rac-(5S,7S)-7-fluoro-5-phenyl-6,7-dihydro-5H-pyrrolo[1,2-b][1,2,4]triazol-2-yl)-(1-methylcyclopropyl)methanone], 7.42.
In the case of `O=C(CC(F)(F)F)c1nc2n(n1)[C@@H](c1ccccc1)C[C@H]2F` (racemic) [Example 29, 3,3,3-trifluoro-1-[rac-(5R,7R)-7-fluoro-5-phenyl-6,7-dihydro-5H-pyrrolo[1,2-b][1,2,4]triazol-2-yl]propan-1-one], the pKi is 6.87.
`CCC(=O)c1nc2n(n1)[C@H](c1ccccc1F)CC2` (racemic) [Example 31, 1-[rac-(5S)-5-(2-fluorophenyl)-6,7-dihydro-5H-pyrrolo[1,2-b][1,2,4]triazol-2-yl]propan-1-one]: the pKi was 8.13.
For `CCC(=O)c1nc2n(n1)[C@H](c1ccccc1)[C@@H](F)C2` (racemic) [Example 32, 1-[rac-(5R,6S)-6-fluoro-5-phenyl-6,7-dihydro-5H-pyrrolo[1,2-b][1,2,4]triazol-2-yl]propan-1-one], the pKi is 6.13.
As to `O=C(c1ccccn1)c1nc2n(n1)[C@H](c1ccccc1)C[C@@H]2F` (racemic) [Example 33, (rac-(5S,7S)-7-fluoro-5-phenyl-6,7-dihydro-5H-pyrrolo[1,2-b][1,2,4]triazol-2-yl)-(2-pyridyl)methanone], the pKi was 5.63.
Still for that read-out and setting: the same measure for `O=C(c1nc2n(n1)[C@H](c1ccccc1)C[C@@H]2F)C1CCCC1` (racemic) [Example 36, cyclopentyl--(rac-(5S,7S)-7-fluoro-5-phenyl-6,7-dihydro-5H-pyrrolo[1,2-b][1,2,4]triazol-2-yl)methanone]: 7.73; for `O=C(c1nc2n(n1)[C@H](c1ccccc1)C[C@@H]2F)c1cccs1` (racemic) [Example 41, (rac-(5S,7S)-7-fluoro-5-phenyl-6,7-dihydro-5H-pyrrolo[1,2-b][1,2,4]triazol-2-yl)-(2-thienyl)methanone]: 7.57.
Still for that read-out and setting: the same measure for `O=C(c1nc2n(n1)[C@@H](c1ccccc1)C[C@H]2F)C1CCC1` (racemic) [Example 43, cyclobutyl-[rac-(5R,7R)-7-fluoro-5-phenyl-6,7-dihydro-5H-pyrrolo[1,2-b][1,2,4]triazol-2-yl]methanone]: 7.92.
As to `CCC(=O)c1nc2n(n1)[C@H](c1ccccc1)C[C@@H]2F` (racemic) [Example 47, 1-[rac-(5S,7S)-7-fluoro-5-phenyl-6,7-dihydro-5H-pyrrolo[1,2-b][1,2,4]triazol-2-yl]propan-1-one], the pKi was 8.45.
Regarding `CC(=O)c1nc2n(n1)[C@@H](c1ccccc1)C[C@H]2F` (racemic) [Example 50, 1-[rac-(5R,7R)-7-fluoro-5-phenyl-6,7-dihydro-5H-pyrrolo[1,2-b][1,2,4]triazol-2-yl]ethanone], the pKi is 7.12.
Consider `O=C(c1nc2n(n1)[C@H](c1ccccc1)C[C@@H]2F)C1(F)CC1` (racemic) [Example 53, (1-fluorocyclopropyl)-(rac-(5S,7S)-7-fluoro-5-phenyl-6,7-dihydro-5H-pyrrolo[1,2-b][1,2,4]triazol-2-yl)methanone], for which the pKi is 7.65.
For `O=C(c1nc2n(n1)[C@H](c1ccccc1)C[C@@H]2F)C1C2COCC21` (mixture of isomers) [Example 56, 3-oxabicyclo[3.1.0]hexan-6-yl-[rac-(5S,7S)-7-fluoro-5-phenyl-6,7-dihydro-5H-pyrrolo[1,2-b][1,2,4]triazol-2-yl]methanone], the pKi was 6.66.
On to `O=C(c1nc2n(n1)[C@H](c1ccccc1)C[C@@H]2F)C1COC1` (racemic) [Example 57, oxetan-3-yl-[rac-(5S,7S)-7-fluoro-5-phenyl-6,7-dihydro-5H-pyrrolo[1,2-b][1,2,4]triazol-2-yl]methanone], for which the pKi is 7.37.
Same read-out and setting: the same measure for `O=C(c1nc2n(n1)[C@H](c1ccccc1)C[C@@H]2F)C1(CO)CC1` (racemic) [Example 58, [1-(hydroxymethyl)cyclopropyl]-[rac-(5S,7S)-7-fluoro-5-phenyl-6,7-dihydro-5H-pyrrolo[1,2-b][1,2,4]triazol-2-yl]methanone]: 7.54.
